Assay results as given in patent US12305197B2, “Proliferation method” (Kao Corporation, priority 2019, dated 2025).

What was measured:
[1] = test system: H1N1 influenza virus strain (A/Puerto Rico/8/1934); conditions: in vivo
[2] = test system: H3N2 influenza virus strain (A/Memphis/l/1971); type: cell-based
[3] = test system: H1N1pdm influenza virus strain (A/Shizuoka/830/2009); type: cell-based
[4] = test system: H1N1 (laboratory strain) influenza virus strain; type: cell-based, influenza A virus
[5] = test system: influenza B virus strain (B/Lee/1940); type: cell-based
[6] = test system: H3N2 influenza virus strain (A/Memphis/l/1971); type: cell-based; remark: listed apart in the source
[7] = test system: H1N1pdm influenza virus strain (A/Shizuoka/830/2009); type: cell-based; remark: listed apart in the source
[8] = test system: influenza B virus strain (B/Lee/1940); type: cell-based; remark: listed apart in the source
[9] = test system: H1N1 (laboratory strain) influenza virus strain; type: cell-based, influenza A virus; remark: listed apart in the source

Substance: Val-Ser-Ala-Leu-Lys (VSALK) [SEQ ID NO: 7]
- increase of viral titer versus control group [1]: 1.27 times
- viral titer compared with 10-fold control group (5×10^3 EID50/chicken egg) [1]: higher

Substance: Val-Pro-Met-Leu-Lys (VPMLK) [SEQ ID NO: 1]
- HA titer of influenza virus [2]: increases
- HA titer of influenza virus, low Bax inhibitor concentration [2]: increases
- HA titer of influenza virus, time-dependent [2]: increases the HA titer of the influenza virus strains in the early stages of the culture
- HA titer of influenza virus [3]: increases
- HA titer of influenza virus, low Bax inhibitor concentration [3]: increases
- HA titer of influenza virus, time-dependent [3]: increases the HA titer of the influenza virus strains in the early stages of the culture
- HA titer of influenza virus, low Bax inhibitor concentration [4]: increases
- HA titer of influenza B virus [5]: increases
- amount of influenza virus (virus proliferation capacity) by focus assay [6]: exhibits the effect of enhancing the virus proliferation capacity
- amount of influenza virus (virus proliferation capacity) by focus assay [7]: exhibits the effect of enhancing the virus proliferation capacity
- amount of influenza B virus (virus proliferation capacity) by plaque assay [8]: exhibit the effect of enhancing the virus proliferation capacity

Substance: Pro-Met-Leu-Lys-Glu (PMLKE) [SEQ ID NO: 2]
- HA titer of influenza virus, low Bax inhibitor concentration [2]: increase in the HA titer of the influenza virus was also observed
- HA titer of influenza virus, low Bax inhibitor concentration [3]: increase in the HA titer of the influenza virus was also observed
- HA titer of influenza virus, low Bax inhibitor concentration [4]: increase in the HA titer of the influenza virus was also observed
- HA titer of influenza B virus [5]: increases
- amount of influenza virus (virus proliferation capacity) by focus assay, low concentration [6]: enhances the virus proliferation capacity
- amount of influenza virus (virus proliferation capacity) by focus assay, low concentration [7]: enhances the virus proliferation capacity
- amount of influenza virus (virus proliferation capacity) by focus assay, low concentration [9]: enhances the virus proliferation capacity
- amount of influenza B virus (virus proliferation capacity) by plaque assay [8]: exhibit the effect of enhancing the virus proliferation capacity
